Assay results from ChEMBL document CHEMBL4190350, “Synthesis, antimicrobial, antiquorum-sensing, antitumor and cytotoxic activities of new series of cyclopenta(hepta)[b]thiophene and fused cyclohepta[b]thiophene analogs” (Eur J Med Chem, 2017).
pIC50: −log10 of the molar value. Converted amounts (≈) assume the structure as drawn.

Experiments:
Candida albicans [1] = assay: Antimicrobial activity against Candida albicans incubated for 48 hrs by disc diffusion assay; assay type: functional
Aspergillus fumigatus [2] = assay: Antimicrobial activity against Aspergillus fumigatus incubated for 48 hrs by disc diffusion assay; assay type: functional
Candida albicans [3] = assay: Antimicrobial activity against Candida albicans incubated for 48 hrs by serial dilution method; assay type: functional
Aspergillus fumigatus [4] = assay: Antimicrobial activity against Aspergillus fumigatus incubated for 48 hrs by serial dilution method; assay type: functional
Escherichia coli [5] = assay: Antimicrobial activity against Escherichia coli incubated for 24 hrs by disc diffusion assay; assay type: functional
Bacillus cereus [6] = assay: Antimicrobial activity against Bacillus cereus incubated for 24 hrs by disc diffusion assay; assay type: functional
Staphylococcus aureus [7] = assay: Antimicrobial activity against Staphylococcus aureus incubated for 24 hrs by disc diffusion assay; assay type: functional
[8] = test system: Chromobacterium violaceum; assay: Inhibition of quorum sensing system in Chromobacterium violaceum ATCC 12472 assessed as inhibition of violacein production at 5 mg/mL incubated for 48 hrs
HepG2 = assay: Antitumor activity against human HepG2 cells assessed as inhibition of cell viability incubated for 48 hrs by MTT assay; assay type: functional, cell-based; conditions: HepG2, 48 h
MCF7 = assay: Antitumor activity against human MCF7 cells assessed as inhibition of cell viability incubated for 48 hrs by MTT assay; assay type: functional, cell-based; conditions: MCF7, 48 h
HT-29 = assay: Antitumor activity against human HT-29 cells assessed as inhibition of cell viability incubated for 48 hrs by MTT assay; assay type: functional, cell-based; conditions: HT-29, 48 h
[9] = Binding affinity to DNA (unknown origin) assessed as reduction in absorption maxima for methyl green/DNA complex incubated for 24 hrs by methyl green/DNA displacement assay
Bacillus cereus [10] = assay: Antimicrobial activity against Bacillus cereus incubated for 24 hrs by serial dilution method; assay type: functional
Escherichia coli [11] = assay: Antimicrobial activity against Escherichia coli incubated for 24 hrs by serial dilution method; assay type: functional
Staphylococcus aureus [12] = assay: Antimicrobial activity against Staphylococcus aureus incubated for 24 hrs by serial dilution method; assay type: functional
Ehrlich [13] = assay: Antitumor activity against mouse EAC cells implanted in Swiss albino mouse assessed as mean survival time at 0.5 mg for 9 days (reference value: 14.5 day); assay type: functional
Ehrlich [14] = assay: Antitumor activity against mouse EAC cells implanted in Swiss albino mouse assessed as increase in life span at 0.5 mg for 9 days relative to untreated control; assay type: functional
Ehrlich [15] = assay: Antitumor activity against mouse EAC cells implanted in Swiss albino mouse assessed as tumor volume at 0.5 mg for 9 days (reference value: 9.85 ml); assay type: functional
Mus musculus [16] = assay: Toxicity in mouse EAC cells implanted Swiss albino mouse assessed as hemoglobin level at 0.5 mg for 9 days (reference value: 8.15 g/dl); assay type: organism-based; conditions: in vivo, 216 h
Mus musculus [17] = assay: Toxicity in mouse EAC cells implanted Swiss albino mouse assessed as RBC count at 0.5 mg for 9 days (reference value: 3.69 10^6/mm3); assay type: organism-based; conditions: in vivo, 216 h
Mus musculus [18] = assay: Toxicity in mouse EAC cells implanted Swiss albino mouse assessed as WBC count at 0.5 mg for 9 days (reference value: 23.96 10^3/mm3); assay type: organism-based; conditions: in vivo, 216 h
WI-38 = assay: Cytotoxicity in human WI38 cells assessed as inhibition of cell viability incubated for 48 hrs by MTT assay; assay type: cell-based; conditions: WI-38, 48 h

Compound | diameter of the inhibition zone (DIZ) (Candida albicans [1]) [mm] | diameter of the inhibition zone (DIZ) (Aspergillus fumigatus [2]) [mm] | MIC (Aspergillus fumigatus [4]) | diameter of the inhibition zone (DIZ) (Escherichia coli [5]) [mm] | diameter of the inhibition zone (DIZ) (Bacillus cereus [6]) [mm] | diameter of the inhibition zone (DIZ) (Staphylococcus aureus [7]) [mm] | INH [8] [mm] | pIC50 (HepG2) | pIC50 (MCF7) | pIC50 (HT-29) | pIC50 [9] | MIC (Bacillus cereus [10]) [µM] | MST (Ehrlich [13]) [days] | ILS (Ehrlich [14]) [%] | Activity (Ehrlich [15]) [mL] | Activity (Mus musculus [16]) [g/dL] | Activity (Mus musculus [17]) [×10⁶ /mm3] | Activity (Mus musculus [18]) [×10³ /mm3] | also measured
OC(Cn1cncn1)(Cn1cncn1)c1ccc(F)cc1F [FLUCONAZOLE] | 22 | <2 | > 2500 mg/L | – | – | – | – | – | – | – | – | – | – | – | – | – | – | – | MIC (Candida albicans [3]): 4080 µM (≈ 1250 µg/mL)
CC(=O)c1c(O)c2c3c(sc2[nH]c1=O)CCCCC3 | 9 | 24 | 563 µM | 12 | 9 | 8 | 5 | 4.26 | 4.60 | 4.33 | 4.25 | – | – | – | – | – | – | – | –
GENTAMICIN | – | – | – | – | – | – | – | – | – | – | – | 0.31 | – | – | – | – | – | – | –
CCOC(=O)c1c(N/N=C(\C(C)=O)C(=O)c2ccccc2)sc2c1CCCCC2 | 11 | 18 | 758 µM | <2 | <2 | <2 | 3 | 4.15 | 4.43 | 4.02 | – | – | – | – | – | – | – | – | –
NNC(=O)c1c(NN=C2C(N)=NN=C2N)sc2c1CCCCC2 | 24 | 32 | 234 µM | 19 | 30 | 28 | 12 | 4.67 | 4.63 | 4.52 | 4.28 | 234 (≈ 78.1 µg/mL) | – | – | – | – | – | – | MIC (Escherichia coli [11]): 467 µM (≈ 156 µg/mL); MIC (Staphylococcus aureus [12]): 234 µM (≈ 78.1 µg/mL); MIC (Candida albicans [3]): 467 µM (≈ 156 µg/mL)
CCOC(=O)C1(C(C)=O)N=Nc2sc3c(c2C1=O)CCCCC3 (stereo not drawn) | 5 | <2 | – | 17 | 5 | <2 | 3 | 4.04 | 4.30 | 4.10 | – | – | – | – | – | – | – | – | MIC (Escherichia coli [11]): 934 µM (≈ 312 µg/mL)
CC1(C)S[C@@H]2[C@H](NC(=O)[C@H](N)c3ccccc3)C(=O)N2[C@H]1C(=O)O [AMPICILLIN] | – | – | – | 28 | 12 | 20 | – | – | – | – | – | 3580 (≈ 1250 µg/mL) | – | – | – | – | – | – | MIC (Escherichia coli [11]): 55.9 µM (≈ 19.5 µg/mL); MIC (Staphylococcus aureus [12]): 894 µM (≈ 313 µg/mL)
Nc1nc2sc3c(c2c(=O)n1N)CCCCC3 | <2 | <2 | – | 11 | 17 | 5 | < 2 | 4.08 | 4.45 | 4.29 | – | 1250 (≈ 313 µg/mL) | – | – | – | – | – | – | –
CCOC(=O)c1c(N/N=C(\C(C)=O)C(=O)c2ccccc2)sc2c1CCC2 | <2 | 2 | – | 7 | 14 | 9 | 3 | 4.55 | 4.86 | 4.24 | 4.53 | – | 33.5 | 130.95 | 3.53 | 11.74 | 4.79 | 9.62 | pIC50 (WI-38): 4.17
CC(=O)C1(C(C)=O)N=Nc2sc3c(c2C1=O)CCCCC3 | 19 | <2 | – | <2 | 7 | <2 | 3 | 4.68 | 4.83 | 4.89 | 4.34 | – | 36 | 148.27 | 3.3 | 12.04 | 4.81 | 9.11 | MIC (Candida albicans [3]): 513 µM (≈ 156 µg/mL); pIC50 (WI-38): 4.32
CCOC(=O)c1c(NN=C(C(C)=O)C(C)=O)sc2c1CCCCC2 | 20 | 30 | 223 µM | 6 | 14 | 8 | 4 | 4.51 | 4.67 | 4.27 | 4.43 | – | – | – | – | – | – | – | MIC (Candida albicans [3]): 223 µM (≈ 78.1 µg/mL)
CC(=O)C1(C(=O)c2ccccc2)N=Nc2sc3c(c2C1=O)CCCCC3 (stereo not drawn) | <2 | <2 | – | <2 | 16 | 5 | 11 | 4.85 | 4.93 | 5.01 | 4.67 | 853 (≈ 313 µg/mL) | 43.3 | 198.62 | 2.55 | 12.92 | 5.16 | 7.95 | pIC50 (WI-38): 4.20
CCOC(=O)c1c(NN=C(C#N)C#N)sc2c1CCCCC2 | 11 | 9 | – | 7 | 11 | 19 | 9 | 4.97 | 5.09 | 5.12 | 4.26 | – | 42.5 | 193.1 | 2.7 | 12.54 | 5.09 | 8.18 | MIC (Staphylococcus aureus [12]): 988 µM (≈ 312 µg/mL); pIC50 (WI-38): 4.27
CO/N=C(\C(=O)N[C@@H]1C(=O)N2C(C(=O)O)=C(COC(C)=O)CS[C@H]12)c1csc(N)n1 [CEFOTAXIME] | – | – | – | – | – | – | – | – | – | – | – | – | – | – | – | – | – | – | MIC (Escherichia coli [11]): 13.6 µM (≈ 6.19 µg/mL); MIC (Staphylococcus aureus [12]): 32.9 µM (≈ 15 µg/mL)
O=c1[nH]cc(F)c(=O)[nH]1 [FLUOROURACIL] | – | – | – | – | – | – | – | 5.16 | 5.24 | 5.34 | – | – | 49 | 237.9 | 1.6 | 12.96 | 5.21 | 8.86 | –
NNC(=O)c1c(NN=C2C(=O)NNC2=O)sc2c1CCC2 | <2 | 17 | 1010 µM | <2 | <2 | <2 | 8 | – | – | – | – | – | – | – | – | – | – | – | –
